Assay results from patent US8822468B2 (Novartis AG, priority 2008, dated 2014).

These compounds were tested against T1, cMET receptor tyrosine kinase (GST-cMET (969-1390)) (Homo sapiens, UniProt P08581) (assay: EPK cMET profiling assay (LanthaScreen TR-FRET antibody based kinase phosphorylation assay)). Conditions: purified recombinant GST-cMET (969-1390), 2 μM ATP, 50 nM Fluorescein-PolyEAY, 60 minutes at room temperature; read-out: c-Met IC50.
T1 construct: made in house
T1 sequence (P08581 969-1390): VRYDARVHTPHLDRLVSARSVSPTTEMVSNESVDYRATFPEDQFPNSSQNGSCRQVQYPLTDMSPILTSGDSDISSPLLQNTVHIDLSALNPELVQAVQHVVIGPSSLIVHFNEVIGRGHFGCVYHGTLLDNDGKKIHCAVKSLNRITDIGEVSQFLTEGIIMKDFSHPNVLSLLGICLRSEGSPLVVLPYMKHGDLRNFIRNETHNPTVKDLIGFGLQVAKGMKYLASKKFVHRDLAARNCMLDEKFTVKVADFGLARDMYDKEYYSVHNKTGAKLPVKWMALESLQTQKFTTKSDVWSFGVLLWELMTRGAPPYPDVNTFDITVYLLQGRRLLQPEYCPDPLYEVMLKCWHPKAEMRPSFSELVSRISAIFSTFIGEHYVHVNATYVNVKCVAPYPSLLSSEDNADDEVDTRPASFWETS
Format: biochemical
Protocol: A number of compounds of the present invention were assayed in an antibody based kinase phosphorylation assay as follows.
EPK cMET Profiling Assay:
The EPK kinase assay for cMET receptor tyrosine kinase was developed, using the purified recombinant GST-fusion protein, containing the cytoplasmic domain of the enzyme. GST-cMET (969-1390) was purified by affinity chromatography.
The kinase assay is based on the LanthaScreen™ technology. LanthaScreen™ is the detection of Time-Resolved Fluorescence Resonance Energy Transfer (TR-FRET) using lanthanide chelates to measure interactions between various binding partners. In a TR-FRET kinase assay, a long-lifetime lanthanide donor species is conjugated to an antibody that specifically binds to a phosphorylated product of a kinase reaction that is labeled with a suitable acceptor fluorophore. This antibody-mediated interaction brings the lanthanide donor and the acceptor into proximity such that resonance energy transfer can take place, resulting in a detectible increase in the FRET signal.
The kinase reactions were performed in 384 well microtiter plates in a total reaction volume of 9.05 μL. The assay plates were prepared with 0.05 μL per well of test compound in the appropriate test concentration, as described under “preparation of compound dilutions”. The reactions were started by combining 4.5 μL of ATP solution with 4.5 μL of enzyme-substrate mix (consisting of kinase and substrate). The final concentrations in the kinase reactions were 35 mM Tris/HCl, 1 mM DTT, 0.025% Tween20, 10 μM sodium orthovanadate, 0.25% BSA, 0.6% DMSO, 10 mM MgCl2, 3 mM MnCl2, 2 μM ATP, 50 nM Fluorescein-PolyEAY, and 0.3 nM enzyme.
The reactions were incubated for 60 minutes at room temperature and stopped by adding 4.5 μL of stop buffer (50 mM EDTA, 0.04% NP40, 20 mM Tris/HCl).
Subsequently 4.5 μL of detection mix (50 mM Tris/HCl, 2 mM DTT, 0.05% Tween20, 20 μM sodium orthovanadate, 1% BSA, 1.72 μg/ml Tb-PY20 antibody) were added to the stopped reactions. After 30 minutes incubation at room temperature, the plates were measured in a BMG Pherastar fluorescence reader. The effect of compound on the enzymatic activity was in all assays obtained from the linear progress curves and determined from one reading (end point measurement).
Test compounds were dissolved in DMSO (10 mM) and transferred into 1.4 mL flat bottom or V-shaped Matrix tubes carrying a unique 2D matrix. The stock solutions were stored at −20° C. if not used immediately. For the test procedure the vials were defrosted and identified by a scanner whereby a working sheet was generated that guided the subsequent working steps.
Compound dilutions were made in 96 well plates. This format enabled the assay of maximally 40 individual test compounds at 8 concentrations (single points) including 4 reference compounds. The dilution protocol included the production of “pre-dilution plates”, “master plates” and “assay plates”.
Pre-dilution plates: 96 polypropylene well plates were used as pre-dilution plates. A total of 4 pre-dilution plates were prepared including 10 test compounds each on the plate positions A1-A10, one standard compound at A11 and one DMSO control at A12. All dilution steps were done on a HamiltonSTAR robot.
Master plates: 100 μL of individual compound dilutions including standard compound and controls of the 4 “pre-dilution plates” were transferred into a 384 “master plate” including the following concentrations 1,820, […], 182, 54.6, 18.2, 5.46, 1.82 and 0.546 μM, respectively in 90% of DMSO.
Assay plates: Identical “assay plates” were then prepared by pipetting 50 nL each of compound dilutions of the “master plates” into 384-well “assay plates” by means of a HummingBird 384-channel dispenser. These plates were used directly for the assay which was performed in a total volume of 9.05 μL. This led to a final compound concentration of 10, 3.0, 1.0, 0.3, 0.1, 0.03, 0.01 and 0.003 μM and a final DMSO concentration of 0.5% in the assay.
For `CN(C(=O)OC(C)(C)C)C1CCN(c2ccc3ncc(Cc4ccc5ncccc5c4)n3n2)C1` (racemic) [Example 87, Methyl-[1-(3-quinolin-6-ylmethyl-imidazo[1,2-b]pyridazin-6-yl)-pyrrolidin-3-yl]-carbamic acid tert-butyl ester], the IC50 was 370 nM.
`CC(c1cc2cccnc2cc1F)c1cnc2ccc(-c3cnn(C4CCN(C)CC4)c3)nn12` (racemic) [Example 259, (rac)-7-Fluoro-6-(1-{6-[1-(1-methyl-piperidin-4-yl)-1H-pyrazol-4-yl]-imidazo[1,2-b]pyridazin-3-yl}-ethyl)-quinoline] was tested, and the IC50 was 23 nM.
Compound `Cc1cccc(-c2ccc3ncc(C(C)c4ccc5nccn5c4)n3n2)c1` (racemic) [Example 308, (rac)-3-(1-Imidazo[1,2-a]pyridin-6-yl-ethyl)-6-m-tolyl-imidazo[1,2-b]pyridazine] has an IC50 of 82 nM.
With `Cn1cc(-c2ccc3ncc(Cc4ccc(O)cc4F)n3n2)cn1` [Example 202, 3-Fluoro-4-[6-(1-methyl-1H-pyrazol-4-yl)-imidazo[1,2-b]pyridazin-3-ylmethyl]-phenol] the IC50 was 68 nM.
`[2H]C([2H])(c1ccc2ncccc2c1)c1cnc2ccc(Cl)nn12` [Example 142, 6-[(6-Chloro-imidazo[1,2-b]pyridazin-3-yl)-dideutero-methyl]-quinoline] showed an IC50 of 210 nM.
Compound `Fc1ccc(Nc2ccc3ncc(Cc4ccc5ncccc5c4)n3n2)cc1Cl` [Example 137, (3-Chloro-4-fluoro-phenyl)-(3-quinolin-6-ylmethyl-imidazo[1,2-b]pyridazin-6-yl)-amine] has an IC50 of 100 nM.
`Clc1ccc(-c2ccc3ncc(Cc4ccc5ncccc5c4)n3n2)s1` [Example 41, 6-[6-(5-Chloro-thiophen-2-yl)-imidazo[1,2-b]pyridazin-3-ylmethyl]-quinoline] showed an IC50 of 56 nM.
`C[C@@H](c1ccc2c(cnn2CCO)c1)c1cnc2ccc(-c3cnn(C)c3)nn12` [Example 275, 2-(5-{(S)-1-[6-(1-Methyl-1H-pyrazol-4-yl)-imidazo[1,2-b]pyridazin-3-yl]-ethyl}-indazol-1-yl)ethanol] gave an IC50 of 150 nM.
In the case of `Clc1c(Cc2cnc3ccc(-c4cnn(C5CCNCC5)c4)nn23)ccc2ncccc12` [Example 227, 5-Chloro-6-[6-(1-piperidin-4-yl-1H-pyrazol-4-yl)-imidazo[1,2-b]pyridazin-3-ylmethyl]-quinoline], the IC50 is reported as 78 nM.
Work on `Clc1ccc(-c2ccc(-c3ccc4ncc(Cc5ccc6ncccc6c5)n4n3)cn2)cn1` [Example 48, 6′-Chloro-5-(3-quinolin-6-ylmethyl-imidazo[1,2-b]pyridazin-6-yl)-[2,3′]bipyridinyl] yielded an IC50 of 190 nM.
Compound `CC(c1c(F)cc2ncccc2c1F)c1cnc2ccc(-c3cnn(CCO)c3)nn12` (racemic) [Example 182, (rac)-2-(4-{3-[1-(5,7-Difluoro-quinolin-6-yl)-ethyl]-imidazo[1,2-b]pyridazin-6-yl}-pyrazol-1-yl)ethanol] has an IC50 of 3 nM.
Compound `CCC(C)(C)Nc1ccc2ncc(Cc3ccc4ncccc4c3)n2n1` [Example 98, (1,1-Dimethyl-propyl)-(3-quinolin-6-ylmethyl-imidazo[1,2-b]pyridazin-6-yl)-amine] has an IC50 of 110 nM.
`C[C@@H](c1ccc2[nH]ncc2c1)c1cnc2ccc(-c3cnn(C)c3)nn12` [Example 195, 3-[(S)-1-(2H-Indazol-5-yl)-ethyl]-6-(1-methyl-1H-pyrazol-4-yl)-imidazo[1,2-b]pyridazine] showed an IC50 of 14 nM.
With `CC(=O)NCCNc1ccc2ncc(Cc3ccc4ncccc4c3)n2n1` [Example 96, N-[2-(3-Quinolin-6-ylmethyl-imidazo[1,2-b]pyridazin-6-ylamino)-ethyl]-acetamide] the IC50 was 190 nM.
Work on `CC(c1cc2cccnc2cc1F)c1cnc2ccc(-c3cnn(C4CCNCC4)c3)nn12` (racemic) [Example 258, (rac)-7-Fluoro-6-{1-[6-(1-piperidin-4-yl-1H-pyrazol-4-yl)-imidazo[1,2-b]pyridazin-3-yl]-ethyl}-quinoline] yielded an IC50 of 43 nM.
Compound `O[C@@H]1CCN(c2ccc3ncc(Cc4cc5cccnc5cc4F)n3n2)C1` [Example 262, (R)-1-[3-(7-Fluoro-quinolin-6-ylmethyl)-imidazo[1,2-b]pyridazin-6-yl]-pyrrolidin-3-ol] has an IC50 of 42 nM.
`C[C@@H](c1cc2cnn(C)c2cc1F)c1cnc2ccc(-c3cnn(C)c3)nn12` [Example 194, 3-[(S)-1-(6-Fluoro-1-methyl-1H-indazol-5-yl)-ethyl]-6-(1-methyl-1H-pyrazol-4-yl)-imidazo[1,2-b]pyridazine] showed an IC50 of 18 nM.
`Cn1cc(-c2ccc3ncc(Cc4ccc5occc5c4)n3n2)cn1` [Example 8, 3-Benzofuran-5-ylmethyl-6-(1-methyl-1H-pyrazol-4-yl)-imidazo[1,2-b]pyridazine] gave an IC50 of 270 nM.
Compound `C[C@H](c1ccc2ncccc2c1)c1cnc2ccc(-c3cnn(C)c3)nn12` [Example 158, 6-{(R)-1-[6-(1-Methyl-1H-pyrazol-4-yl)-imidazo[1,2-b]pyridazin-3-yl]-ethyl}-quinoline] has an IC50 of 540 nM.
For `CCn1cc(-c2ccc3ncc(Cc4ccc5nccn5c4)n3n2)cn1` [Example 289, 6-(1-Ethyl-1H-pyrazol-4-yl)-3-imidazo[1,2-a]pyridin-6-ylmethyl-imidazo[1,2-b]pyridazine], the IC50 was 140 nM.
With `CCOc1ccc2ncc(Cc3ccc4ncccc4c3)n2n1` [Example 123, 6-(6-ethoxy-imidazo[1,2-b]pyridazin-3-ylmethyl)-quinoline] the IC50 was 87 nM.
`C[C@@H](c1cc2cccnc2cc1F)c1cnc2ccc(-c3cnn(CCO)c3)nn12` [Example 257] showed an IC50 of less than 3 nM.
For `CN(C)c1ccc2ncc(Cc3ccc4ncccc4c3)n2n1` [Example 106, Dimethyl-(3-quinolin-6-ylmethyl-imidazo[1,2-b]pyridazin-6-yl)-amine], the IC50 was 74 nM.
In the case of `c1cnc2ccc(Cc3cnc4ccc(-n5cccn5)nn34)cc2c1` [Example 134, 6-(6-Pyrazol-1-yl-imidazo[1,2-b]pyridazin-3-ylmethyl)-quinoline], the IC50 is reported as 570 nM.
`Cn1cc(-c2ccc3ncc(Cc4ccc5ncc(Cl)n5c4)n3n2)cn1` [Example 298, 3-(3-Chloro-imidazo[1,2-a]pyridin-6-ylmethyl)-6-(1-methyl-1H-pyrazol-4-yl)-imidazo[1,2-b]pyridazine] gave an IC50 of 130 nM.
For `O[C@@H]1CCN(c2ccc3ncc(Cc4ccc5ncccc5c4)n3n2)C1` [Example 108, (R)-1-(3-Quinolin-6-ylmethyl-imidazo[1,2-b]pyridazin-6-yl)-pyrrolidin-3-ol], the IC50 was 9.8 nM.
`CC(c1c(F)cc2ncccc2c1F)c1cnc2ccc(-c3cnn(C)c3)nn12` (racemic) [Example 191, (rac)-5,7-Difluoro-6-{1-[6-(1-methyl-1H-pyrazol-4-yl)-imidazo[1,2-b]pyridazin-3-yl]-ethyl}-quinoline] showed an IC50 of less than 3 nM.
Compound `CN1CCC(Nc2ccc3ncc(Cc4ccc5ncccc5c4)n3n2)CC1` [Example 83, (1-Methyl-piperidin-4-yl)-(3-quinolin-6-ylmethyl-imidazo[1,2-b]pyridazin-6-yl)-amine] has an IC50 of 115 nM.
With `CCOC(=O)c1cccc(-c2ccc3ncc(Cc4ccc5ncccc5c4)n3n2)c1` [Example 60, 3-(3-Quinolin-6-ylmethyl-imidazo[1,2-b]pyridazin-6-yl)-benzoic acid ethyl ester] the IC50 was 340 nM.
Compound `Clc1ccc2ncc(Cc3ccc4nccn4c3)n2n1` [Example 74, 6-chloro-3-imidazo[1,2-a]pyridin-6-ylmethyl-imidazo[1,2-b]pyridazine] has an IC50 of 200 nM.
`O[C@H]1CCN(c2ccc3ncc(Cc4cc5cccnc5cc4F)n3n2)C1` [Example 261, (S)-1-[3-(7-Fluoro-quinolin-6-ylmethyl)-imidazo[1,2-b]pyridazin-6-yl]-pyrrolidin-3-ol] was tested, and the IC50 was 120 nM.
